Source: patent US20260013504A1, “HERBICIDAL MIXTURE, HERBICIDAL COMPOSITION, METHOD, USE, AND KITS FOR CONTROLLING UNDESIRABLE VEGETATION” (ADAMA AGAN LTD., priority 2022, published 2026)

Assays:
Format in all cases: in vivo
[1] = tested on: Aegilops tauschii; experiment: Pot experiment, soil treatment, control of Aegilops tauschii (fresh weight, Colby); conditions: mixtures: both AIs at these rates, after 35 days
[2] = tested on: Lolium multiflorum Lamk; experiment: Pot experiment, soil treatment, control of Lolium multiflorum Lamk (fresh weight, Colby); conditions: mixtures: both AIs at these rates, after 35 days
[3] = tested on: Bromus japonicus; experiment: Pot experiment, soil treatment, control of Bromus japonicus (fresh weight, Colby); conditions: mixtures: both AIs at these rates, after 35 days
[4] = tested on: Galium aparine; experiment: Pot experiment, soil treatment, control of Galium aparine (fresh weight, Colby)
[5] = tested on: Lithospermum arvense; experiment: Pot experiment, soil treatment, control of Lithospermum arvense (fresh weight, Colby)
[6] = tested on: Solanum nigrum; experiment: Pot experiment (glass greenhouse), soil treatment, control of Solanum nigrum (fresh weight, Colby)
[7] = g ai/ha: pyroxasulfone 11.25, fluorochloridone 31.25, aclonifen 150, diflufenican 14.0625, terbutryn 140.625
[8] = g ai/ha: pyroxasulfone 22.5, fluorochloridone 62.5, aclonifen 300, diflufenican 28.125, terbutryn 281.25
[9] = g ai/ha: pyroxasulfone 45, fluorochloridone 125, aclonifen 600, diflufenican 56.25, terbutryn 562.5
[10] = g ai/ha: pyroxasulfone 90, fluorochloridone 250, aclonifen 1200, diflufenican 112.5, terbutryn 1125
[11] = g ai/ha: pyroxasulfone 180, fluorochloridone 500, aclonifen 2400, diflufenican 225, terbutryn 2250
[12] = g ai/ha: pyroxasulfone 360, fluorochloridone 1000, aclonifen 4800, diflufenican 450, terbutryn 4500

Nc1c([N+](=O)[O-])ccc(Oc2ccccc2)c1Cl [aclonifen, 2-chloro-6-nitrio-3-phenoxyaniline]
Measured fresh weight inhibition rate (%) [1, 7]: 6.1%
Measured fresh weight survival rate (%) - E [1, 7]: 93.9%
Measured fresh weight inhibition rate (%) [1, 8]: 25.0%
Measured fresh weight survival rate (%) - E [1, 8]: 75.0%
Measured fresh weight inhibition rate (%) [1, 9]: 26.2%
Measured fresh weight survival rate (%) - E [1, 9]: 73.8%
Measured fresh weight inhibition rate (%) [1, 10]: 70.1%
Measured fresh weight survival rate (%) - E [1, 10]: 29.9%
Measured fresh weight inhibition rate (%) [1, 11]: 74.4%
Measured fresh weight survival rate (%) - E [1, 11]: 25.6%
Measured fresh weight inhibition rate (%) [1, 12]: 97.6%
Measured fresh weight survival rate (%) - E [1, 12]: 2.4%
Measured fresh weight inhibition rate (%) [2, 7]: 89.1%
Measured fresh weight survival rate (%) - E [2, 7]: 10.9%
Measured fresh weight inhibition rate (%) [2, 8]: 96.4%
Measured fresh weight survival rate (%) - E [2, 8]: 3.6%
Measured fresh weight inhibition rate (%) [2, 9]: 99.5%
Measured fresh weight survival rate (%) - E [2, 9]: 0.5%
Measured fresh weight inhibition rate (%) [2, 10]: 100.0%
Measured fresh weight survival rate (%) - E [2, 10]: 0.0%
Measured fresh weight inhibition rate (%) [2, 11]: 100.0%
Measured fresh weight survival rate (%) - E [2, 11]: 0.0%
Measured fresh weight inhibition rate (%) [2, 12]: 100.0%
Measured fresh weight survival rate (%) - E [2, 12]: 0.0%
Measured fresh weight inhibition rate (%) [3, 7]: 45.4%
Measured fresh weight survival rate (%) - E [3, 7]: 54.6%
Measured fresh weight inhibition rate (%) [3, 8]: 86.6%
Measured fresh weight survival rate (%) - E [3, 8]: 13.4%
Measured fresh weight inhibition rate (%) [3, 9]: 100.0%
Measured fresh weight survival rate (%) - E [3, 9]: 0.0%
Measured fresh weight inhibition rate (%) [3, 10]: 100.0%
Measured fresh weight survival rate (%) - E [3, 10]: 0.0%
Measured fresh weight inhibition rate (%) [3, 11]: 100.0%
Measured fresh weight survival rate (%) - E [3, 11]: 0.0%
Measured fresh weight survival rate (%) - E ([4]; 150 g ai/ha): 79.5%
Measured fresh weight survival rate (%) - E ([4]; 300 g ai/ha): 63.0%
Measured fresh weight survival rate (%) - E ([4]; 600 g ai/ha): 9.6%
Measured fresh weight survival rate (%) - E ([4]; 1200 g ai/ha): 0.0%
Measured fresh weight survival rate (%) - E ([4]; 2400 g ai/ha): 0.0%
inhibition at 150 g/ha ([4]; Galium aparine, soil, 150 g ai/ha, read-out: Measured fresh weight inhibition rate (%)): 20.5%
inhibition at 300 g/ha ([4]; Galium aparine, soil, 300 g ai/ha, read-out: Measured fresh weight inhibition rate (%)): 37%
inhibition at 600 g/ha ([4]; Galium aparine, soil, 600 g ai/ha, read-out: Measured fresh weight inhibition rate (%)): 90.4%
inhibition at 1200 g/ha ([4]; Galium aparine, soil, 1200 g ai/ha, read-out: Measured fresh weight inhibition rate (%)): 100%
inhibition at 2400 g/ha ([4]; Galium aparine, soil, 2400 g ai/ha, read-out: Measured fresh weight inhibition rate (%)): 100%
Measured fresh weight survival rate (%) - E ([5]; 150 g ai/ha): 43.5%
Measured fresh weight survival rate (%) - E ([5]; 300 g ai/ha): 13.0%
Measured fresh weight survival rate (%) - E ([5]; 600 g ai/ha): 1.4%
Measured fresh weight survival rate (%) - E ([5]; 1200 g ai/ha): 0.0%
Measured fresh weight survival rate (%) - E ([5]; 2400 g ai/ha): 0.0%
inhibition at 150 g/ha ([5]; Buglossoides arvensis, soil, 150 g ai/ha, read-out: Measured fresh weight inhibition rate (%)): 56.5%
inhibition at 300 g/ha ([5]; Buglossoides arvensis, soil, 300 g ai/ha, read-out: Measured fresh weight inhibition rate (%)): 87%
inhibition at 600 g/ha ([5]; Buglossoides arvensis, soil, 600 g ai/ha, read-out: Measured fresh weight inhibition rate (%)): 98.6%
inhibition at 1200 g/ha ([5]; Buglossoides arvensis, soil, 1200 g ai/ha, read-out: Measured fresh weight inhibition rate (%)): 100%
inhibition at 2400 g/ha ([5]; Buglossoides arvensis, soil, 2400 g ai/ha, read-out: Measured fresh weight inhibition rate (%)): 100%
Measured fresh weight survival rate (%) - E ([6]; 150 g ai/ha): 87.1%
Measured fresh weight survival rate (%) - E ([6]; 300 g ai/ha): 82.7%
Measured fresh weight survival rate (%) - E ([6]; 600 g ai/ha): 69.4%
Measured fresh weight survival rate (%) - E ([6]; 1200 g ai/ha): 56.9%
Measured fresh weight survival rate (%) - E ([6]; 2400 g ai/ha): 26.3%
inhibition at 150 g/ha ([6]; Solanum nigrum, soil, 150 g ai/ha, read-out: Measured fresh weight inhibition rate (%)): 12.9%
inhibition at 300 g/ha ([6]; Solanum nigrum, soil, 300 g ai/ha, read-out: Measured fresh weight inhibition rate (%)): 17.3%
inhibition at 600 g/ha ([6]; Solanum nigrum, soil, 600 g ai/ha, read-out: Measured fresh weight inhibition rate (%)): 30.6%
inhibition at 1200 g/ha ([6]; Solanum nigrum, soil, 1200 g ai/ha, read-out: Measured fresh weight inhibition rate (%)): 43.1%
inhibition at 2400 g/ha ([6]; Solanum nigrum, soil, 2400 g ai/ha, read-out: Measured fresh weight inhibition rate (%)): 73.7%

Cn1nc(C(F)(F)F)c(CS(=O)(=O)C2=NOC(C)(C)C2)c1OC(F)F [pyroxasulfone, 3-[(5-difluoromethoxy-1-methyl-3-trifluoromethylpyrazol-4-yl)methylsulfonyl]-4,5-dihydro-5,5-di methyl-1,2-isoxazole]
Measured fresh weight inhibition rate (%) [1, 7]: 4.9%
Measured fresh weight survival rate (%) - E [1, 7]: 95.1%
Measured fresh weight inhibition rate (%) [1, 8]: 11.6%
Measured fresh weight survival rate (%) - E [1, 8]: 88.4%
Measured fresh weight inhibition rate (%) [1, 9]: 47.6%
Measured fresh weight survival rate (%) - E [1, 9]: 52.4%
Measured fresh weight inhibition rate (%) [1, 10]: 50.0%
Measured fresh weight survival rate (%) - E [1, 10]: 50.0%
Measured fresh weight inhibition rate (%) [1, 11]: 78.7%
Measured fresh weight survival rate (%) - E [1, 11]: 21.3%
Measured fresh weight inhibition rate (%) [1, 12]: 97.6%
Measured fresh weight survival rate (%) - E [1, 12]: 2.4%
Measured fresh weight inhibition rate (%) [2, 7]: 68.2%
Measured fresh weight survival rate (%) - E [2, 7]: 31.8%
Measured fresh weight inhibition rate (%) [2, 8]: 94.8%
Measured fresh weight survival rate (%) - E [2, 8]: 5.2%
Measured fresh weight inhibition rate (%) [2, 9]: 100.0%
Measured fresh weight survival rate (%) - E [2, 9]: 0.0%
Measured fresh weight inhibition rate (%) [2, 10]: 100.0%
Measured fresh weight survival rate (%) - E [2, 10]: 0.0%
Measured fresh weight inhibition rate (%) [2, 11]: 100.0%
Measured fresh weight survival rate (%) - E [2, 11]: 0.0%
Measured fresh weight inhibition rate (%) [2, 12]: 100.0%
Measured fresh weight survival rate (%) - E [2, 12]: 0.0%
Measured fresh weight inhibition rate (%) [3, 7]: 74.2%
Measured fresh weight survival rate (%) - E [3, 7]: 25.8%
Measured fresh weight inhibition rate (%) [3, 8]: 88.7%
Measured fresh weight survival rate (%) - E [3, 8]: 11.3%
Measured fresh weight inhibition rate (%) [3, 9]: 100.0%
Measured fresh weight survival rate (%) - E [3, 9]: 0.0%
Measured fresh weight inhibition rate (%) [3, 10]: 100.0%
Measured fresh weight survival rate (%) - E [3, 10]: 0.0%
Measured fresh weight inhibition rate (%) [3, 11]: 100.0%
Measured fresh weight survival rate (%) - E [3, 11]: 0.0%
Measured fresh weight survival rate (%) - E ([4]; 11.25 g ai/ha): 67.1%
Measured fresh weight survival rate (%) - E ([4]; 22.5 g ai/ha): 21.9%
Measured fresh weight survival rate (%) - E ([4]; 45 g ai/ha): 4.1%
Measured fresh weight survival rate (%) - E ([4]; 90 g ai/ha): 4.1%
Measured fresh weight survival rate (%) - E ([4]; 180 g ai/ha): 0.0%
inhibition at 11.25 g/ha ([4]; Galium aparine, soil, 11.25 g ai/ha, read-out: Measured fresh weight inhibition rate (%)): 32.9%
inhibition at 22.5 g/ha ([4]; Galium aparine, soil, 22.5 g ai/ha, read-out: Measured fresh weight inhibition rate (%)): 78.1%
inhibition at 45 g/ha ([4]; Galium aparine, soil, 45 g ai/ha, read-out: Measured fresh weight inhibition rate (%)): 95.9%
inhibition at 90 g/ha ([4]; Galium aparine, soil, 90 g ai/ha, read-out: Measured fresh weight inhibition rate (%)): 95.9%
inhibition at 180 g/ha ([4]; Galium aparine, soil, 180 g ai/ha, read-out: Measured fresh weight inhibition rate (%)): 100%
Measured fresh weight survival rate (%) - E ([5]; 11.25 g ai/ha): 63.8%
Measured fresh weight survival rate (%) - E ([5]; 22.5 g ai/ha): 55.1%
Measured fresh weight survival rate (%) - E ([5]; 45 g ai/ha): 27.5%
Measured fresh weight survival rate (%) - E ([5]; 90 g ai/ha): 21.7%
Measured fresh weight survival rate (%) - E ([5]; 180 g ai/ha): 10.1%
inhibition at 11.25 g/ha ([5]; Buglossoides arvensis, soil, 11.25 g ai/ha, read-out: Measured fresh weight inhibition rate (%)): 36.2%
inhibition at 22.5 g/ha ([5]; Buglossoides arvensis, soil, 22.5 g ai/ha, read-out: Measured fresh weight inhibition rate (%)): 44.9%
inhibition at 45 g/ha ([5]; Buglossoides arvensis, soil, 45 g ai/ha, read-out: Measured fresh weight inhibition rate (%)): 72.5%
inhibition at 90 g/ha ([5]; Buglossoides arvensis, soil, 90 g ai/ha, read-out: Measured fresh weight inhibition rate (%)): 78.3%
inhibition at 180 g/ha ([5]; Buglossoides arvensis, soil, 180 g ai/ha, read-out: Measured fresh weight inhibition rate (%)): 89.9%
Measured fresh weight survival rate (%) - E ([6]; 11.25 g ai/ha): 82.4%
Measured fresh weight survival rate (%) - E ([6]; 22.5 g ai/ha): 68.2%
Measured fresh weight survival rate (%) - E ([6]; 45 g ai/ha): 38.4%
Measured fresh weight survival rate (%) - E ([6]; 90 g ai/ha): 8.2%
Measured fresh weight survival rate (%) - E ([6]; 180 g ai/ha): 4.7%
inhibition at 22.5 g/ha ([6]; Solanum nigrum, soil, read-out: Measured fresh weight inhibition rate (%)): 31.8%
inhibition at 11.25 g/ha ([6]; Solanum nigrum, soil, 11.25 g ai/ha, read-out: Measured fresh weight inhibition rate (%)): 17.6%
inhibition at 45 g/ha ([6]; Solanum nigrum, soil, 45 g ai/ha, read-out: Measured fresh weight inhibition rate (%)): 61.6%
inhibition at 90 g/ha ([6]; Solanum nigrum, soil, 90 g ai/ha, read-out: Measured fresh weight inhibition rate (%)): 91.8%
inhibition at 180 g/ha ([6]; Solanum nigrum, soil, 180 g ai/ha, read-out: Measured fresh weight inhibition rate (%)): 95.3%
